Measured values published in patent US10273313B2, “Multimeric mannosides, a process for preparing the same and their uses as a drug” (CENTRE NATIONAL DE LA RECHERCHE SCIENTIFIQUE, priority 2012, dated 2019).
In brackets after ≈: the same amount, converted by molar mass. Read-outs that look alike come from different tables or passages of the source.

Key:
[1] = test system: E. coli strain UTI89 in the bladder of C3H/HeN mice; assay: In vivo inhibition in the murine cystitis model (instillation with UTI89)
Experimental: In vivo inhibition was evaluated by instilling 1-4 together with the UTI89 strain via a catheter in the bladder of C3H/HeN mice. […] A group of ten animals was used for each concentration of antagonists. […] The animals were sacrificed at a 6 h post infection time.
A murine model of urinary tract infection was used to test the ability of the compounds to inhibit the colonization of UTI89 in the bladder [Hung C. S.; Dodson, K. W., Hultgren S. J. Nat. Protoc. 2009, 4, 1230-1243 and Wellens A.; Garofalo C.; Nguyen H.; Van Gerven N.; Slättegård R.; Hernalsteens, J.-P.; Wyns, L.; Oscarson, S.; De Greve H.; Hultgren S. J.; Bouckaert, J. PLoS ONE 2008, 3, e2040]. The solution with high concentration of compounds was added to the resuspension of UTI89 before given to the mice. The eight-week old Female C3H/HeN mice (Harlan, Horst, The Netherlands) were anesthetized and infected via transurethral catheterization of 10^7 CFU UTI89 in solution in PBS, or in PBS with the compound in the mentioned concentration. The mice were sacrificed at 24 hours post infection and the bladders were harvested, homogenized and resuspended in PBS. The serial dilutions were spot on LB medium agar plates. The bacterial load was determined by counting the CFU recovered from the bladder. The animal experiments were approved by the Ethical Committer for Animal Experiments of Vrije Universiteit Brussel and complied with all relevant national legislation and institutional policies. The Mann-Whitney test was applied for the comparison of the data obtained from the untreated group and inhibition group in GraphPad Prism version 5.1 and two tailed P value were shown (GraphPad software).
A limited number of papers described the in vivo efficiency of anti-adhesive mannosides to treat UTIs.

[2] = test system: type-1 piliated clinical E. coli isolate UTI89; assay: Haemagglutination inhibition assay (HIA), guinea pig erythrocytes; type: cell-based, Escherichia coli; settings: read-out: Minimal inhibitory concentration (MIC) on haemagglutination
Experimental: Haemagglutination is observed as the red blood cells being held in suspension through the formation of a space-filling cross-linked network with the fimbriated bacteria.
The UIT89 clinical isolate was grown statically 37° C. for 48 hours in LB medium and analysed for haemagglutination of guinea pig red blood cells. Both bacteria and red blood cells (RBCs) were washed 3 times in ice-cold PBS (17 mM K/NaH2PO4, 150 mM NaCl). PBS was used for all dilutions. 96-well round-bottom microtiter plates were used for the dilutions. The titer for agglutination was determined in a 2-fold dilution series in PBS of the bacteria in a volume of 25 μL. Well 1 is a negative control without bacteria but 25 μL PBS. 25 μL PBS and 50 μL 5% RBCs were added to a final 100 μL volume. Upon 1 hour at 4° C., the titer was determined as the lowest concentration of bacteria that led to haemagglutination.
A bacterial concentration of twice the determined haemagglutination titer was kept constant in the haemagglutination inhibition assays. First, a 2-fold dilution series of the inhibitory compounds was performed in 25 μL PBS. Instead, in well 1 only 25 μL PBS was added as a negative control. 25 μL of the bacterial solution and 50 μl of 5% red blood cells were added to reach a final volume of 100 μL.

[3] = biological target: T1, monovalent lectin domain of FimH (Escherichia coli, UniProt P08191); type: binding; settings: for Kd / Molar ratio n meas / ΔG° / ΔH° / ΔS°: direct titration; for Kd: read-out: Kd
T1 construct: with the monovalent lectin domain of FimH were measured using isothermal calorimetry (ITC)
T1 sequence (P08191 22-179): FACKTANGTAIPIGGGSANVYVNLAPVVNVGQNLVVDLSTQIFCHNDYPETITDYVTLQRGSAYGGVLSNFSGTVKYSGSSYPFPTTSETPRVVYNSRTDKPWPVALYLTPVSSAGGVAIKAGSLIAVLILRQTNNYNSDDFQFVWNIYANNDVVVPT

bladder cell line 5637 = assay: Anti-adhesives for bacterial bladder cell binding; type: cell-based; settings: ten-fold dilution series
Experimental: The anti-adhesive capacities of the HM-derivatized cyclodextrins 1-4 were tested in vitro on the bladder cell line 5637, in a procedure analogous as previously described (Wellens, A. et al., PLoS ONE 3: e2040 (2008)). The CD conjugates 1-4 were diluted in a ten-fold series. The minimum inhibitory concentrations (MIC) indicate the concentrations of sugars at which we see some inhibition of binding of FimH to the bladder cells, they do however not indicate complete inhibition. MIC values for the CD-conjugates 1-4 followed a similar trend as the inhibitory concentrations recorded in HIA.
The anti-adhesive capacities of the n-heptyl α-D-mannoside-derivatized cyclodextrins 1-4 were tested in vitro on the bladder cell line 5637, in a procedure analogous to as described in (Wellens, A. et al., PLoS ONE 3: e2040 (2008)). The ligands have been diluted 10-fold and this is also the resolution limit of these tests.

UTI89 E. coli = assay: Inhibition of haemagglutination (Example 19); type: cell-based, Escherichia coli; settings: two-fold dilution from 1 mM
Experimental: Interaction of E. coli FimH adhesins with the glycocalyx of guinea pig erythrocytes forms a cross-linked network into the wells. Glycoconjugates added in a two-fold dilution series prevents the agglutination reaction. The inhibition titer is defined as the lowest concentration of the glycoconjugate at which haemagglutination is still inhibited. UTI89 E. coli were grown statically overnight in LB at 37° C., washed three times in ice-cold phosphate-buffered saline and resolubilized. A two-fold dilution of glycoconjugates was prepared in 25 μL 20 mM HEPES pH 7.4 with 150 mM NaCl, starting from 1 mM as the highest concentration. The bacterial solution (25 μL) was added to the two-fold dilution series of the compound. Finally 50 μl of guinea pig red blood cells, washed in buffer and diluted to 5%, were added to a final 100 μL and left on ice for 30 min. before read-out. Due to serial dilutions, the maximal error is ±one well, or a factor two (FIG. 2).

lectin domain of FimH = biological target: T2, lectin domain of FimH (Escherichia coli, UniProt P08191); assay: Surface plasmon resonance solution competition assay; type: binding; settings: solution affinity, inhibition of FimH binding to immobilized mannoside, CM5 chip
T2 construct: The lectin domain of FimH was expressed as described previously and purified at pH 4.0; made in house
T2 sequence (P08191 22-179): as above
Experimental: The affinity of the compounds was first evaluated and then measured in a surface plasmon resonance solution competition assay. The lectin domain of FimH was expressed as described previously and purified at pH 4.0 in 50 mM HCOOH on a SPFF (sulfopropyl fast flow) ion exchange column (GE Healthcare). A CM5 sensor chip (Biacore, GE Healthcare) has been coated with a layer of amino-functionalized monovalent heptyl mannoside to 60 RU (response units) and the kinetics of FimH binding to the sensor chip has been determined. All data collection have been performed in HBS buffer complemented with 3 mM EDTA and 0.01% Tween20. Regeneration was done with a single 10 s injection of 100 mM NaOH in water.
The solution affinity provided by the Biacore software uses the equation (B−A−Kd)/2+(0.25*(A+B+Kd)^2−A*B)^0.5, with B presenting the uninhibited concentration of FimH, and A the variable compound concentration.

[4] = test system: AIEC LF82 strain adhesion to T84 intestinal epithelial cells; assay: Adhesion assay on T84 cells, cells incubated 1 h with mannoside prior infection (Example 21.1); type: cell-based, Escherichia coli
Experimental: E. coli strain LF82 was isolated from a chronic ileal lesion of a patient with Crohn's disease (CD). Bacteria were grown routinely in Luria-Bertani (LB) broth overnight at 37° C. Intestinal epithelial cells T84 derived from colonic adenocarcinoma were maintained in an atmosphere containing 5% CO2 at 37° C. in DMEM/F12 (50/50) medium supplemented with 10% (v/v) heat-inactivated fetal calf serum (FCS), 1% L-glutamine, 100 000 U·l^−1 penicillin, 100 mg·l^−1 streptomycin, 25 μg·l^−1 amphotericin B.
T84 cells were seeded in 48-well tissue culture plates with 1.5×10^5 cells per well and grown for 48 h. Cells were incubated 1 h prior infection with each mannoside at a final concentration of 100; 10; 1 or 0.1 μM in complete medium without antibiotics, containing heat inactivated fetal calf serum (FCS) and were next infected with AIEC LF82 strain at a multiplicity of infection (MOI) of 10 bacteria per cell. After a 3 h incubation period at 37° C., the monolayers were washed in phosphate-buffered saline (PBS; pH 7.2). The epithelial cells were then lysed with 1% Triton X-100 in deionized water. Samples were diluted and plated onto Luria Bertani agar plates to determine the number of cfu recovered from the lysed monolayers.
Results were expressed in percentage of residual adhesion, considering adhesion level of AIEC LF82 without mannoside treatment as 100%.

[5] = test system: AIEC strain LF82 adhesion to T84 intestinal epithelial cells; assay: Adhesion assay on T84 cells with thiazolylaminomannosides (Example 22.3); type: cell-based, Escherichia coli
Experimental: T84 Intestinal Epithelial cells (overexpressing the receptor CEACAM6) were beforehand incubated for 1 h with the synthetic thiazolylaminomannosides 6-20 (examples 3-17) at different concentrations. Each compound was tested four times at concentrations of 0.1, 1, 10 and 100 μM.
The cells were then infected in the presence of inhibitory compounds by the AIEC strain of reference LF82 for 3 hours at a multiplicity of infection of 10 bacteria to a cell. After 3 h of incubation, the monolayer was washed and the number of AIEC bacteria associated with cells was counted. The level of adhesion of AIEC LF82 strain in the presence of inhibitors (residual adhesion) was expressed relatively to the level of adherence in the absence of any treatment (considered 100%) (FIG. 10).

[6] = test system: primary human peripheral venous blood monocyte-derived macrophages; assay: Macrophage-mediated phagocytosis of aged PMN cells; type: cell-based; settings: 500 nM
Excerpt: To estimate the influence of mannose-based inhibitors on possible inhibition of phagocytosis we used primary human peripheral venous blood monocyte-derived macrophages and estimated their ability to phagocyte autologous and allogenic human blood-derived PMN cells, as described by us previous (Bilyy, R. O. et al. (2012) J Biol Chem 287, 496-503).
Primary human PMN and MoMa from healthy volunteers were used. Monocytes were isolated from peripheral blood by LymphoPrep® gradient according to manufacture's recommendations for isolation of PBMC fraction. Plastic-attached cells of PBMC fraction were then cultured for 7 days in the presence of GM-CSF (100 U/ml) and autologous serum (added at days 1, 3 and 5) to generate MoMa. After 7 days of differentiation, the MoMa population was tested. They typically contain >95% CD11b+ cells, >90% CD14+ cells and >85% CD89+ cells. Phagocytosis was assessed by pre-incubation of PMN (freshly isolated or aged for 24 h) with mannose-based inhibitor for 30 min at 37° C. at Ringer buffer. Cells were thoroughly washed three times with Ringer solution and incubated with human MoMa for 2 hours. Uningested PMN were analyzed by flow cytometry (for this reason cells were pre-stained with CFSE (Rodel, F. et al. (2005) Strahlentherapie and Onkologie: Organ der Deutschen Rontgengesellschaft . . . [et al] 181, 456-462)) or in the hemocytometric chamber using Zeiss AxioImager A1 microscope. The percentage of prey cells that had been bound to or taken up by MoMa (% of phagocytosis) was calculated.

[7] = excluding spiky heat signals (2)

OCC1OC(OCCCCCCCOCc2cn(CCOCCOCCOCc3cn(CC4OC5OC6C(CO)OC(OC7C(CO)OC(OC8C(CO)OC(OC9C(CO)OC(OC%10C(CO)OC(OC%11C(CO)OC(OC4C(O)C5O)C(O)C%11O)C(O)C%10O)C(O)C9O)C(O)C8O)C(O)C7O)C(O)C6O)nn3)nn2)C(O)C(O)C1O (stereo not shown) [Compound 3]
Inhibition efficiency at decreased concentration ([1]; 0.1 mM): important drop in the inhibition efficiency
Reduction of the level of infection ([1]; instillation of 1 mM with UTI89): 10 fold
MIC ([2]; UTI89 1.2 10^9 CFU/ml): 200 µM (≈ 341 µg/mL)
MIC ([2]; UTI89 1.4 10^8 CFU/ml): 50 µM (≈ 85.3 µg/mL)
MIC ([2]; UTI89 7 10^7 CFU/ml): 31 µM (≈ 52.9 µg/mL)
Affinity of FimH for the ligand (in words) ([3]; ITC): micromolar range
Kd ([3]; data processed to exclude spiky heat signals (2)): 1.95 µM
Kd ([3]; data processed to include the whole binding event (1)): 4.57 µM
Molar ratio n meas [3, 7]: 0.57
ΔG° [3, 7]: -7.7 kcal/mol
ΔH° [3, 7]: -4.8 kcal/mol
ΔS° [3, 7]: 9.9 cal/mol/deg
Molar ratio n meas ([3]; whole binding event (1)): 0.45
ΔG° ([3]; whole binding event (1)): -7.2 kcal/mol
ΔH° ([3]; whole binding event (1)): -10.0 kcal/mol
ΔS° ([3]; whole binding event (1)): −9.6 cal/mol/deg
MIC, anti-adhesive potency on bladder cell line 5637 (bladder cell line 5637): >400 µM

COc1ccn([C@H]2OC(CO)[C@@H](O)C(O)C2O)c(=S)n1 (stereo partly drawn) [NM30, 1-(2,3,4,6-tetrahydroxy-α-D-mannopyranosyl)-4-methoxypyrimidine-2(1H)-(thi)one]
Inhibitory potency in haemagglutination (FIG. 2) (UTI89 E. coli): non-effectiveness
Kd (lectin domain of FimH): 920 nM

Nc1ccn([C@H]2OC(CO)[C@@H](O)C(O)C2O)c(=S)n1 (stereo partly drawn) [NM34, 4-amino-1-(2,3,4,6-tetrahydroxy-α-D-mannopyranosyl)pyrimidine-2(1H)-(thi)one]
Inhibitory potency in haemagglutination (FIG. 2) (UTI89 E. coli): non-effectiveness
Kd (lectin domain of FimH): 2370 nM

O=C[C@@H](O)[C@@H](O)[C@H](O)[C@H](O)CO [mannose, reference compound]
Concentration reaching around 75% of binding inhibition (25% line) [4]: 50000 µM
Concentration necessary to achieve a similar percentage of residual adhesion (decrease greater than 95%) [5]: 100 mM
Decrease of adherence to intestinal epithelial cells ([5]; 100 μM): about 25%

CO[C@H]1O[C@H](CO)[C@@H](O)[C@H](O)[C@@H]1O [αMM, α-D-methyl mannoside]
Phagocytosis rate [6]: significantly decreased phagocytosis rate
